Laboratory results: patent US20240133884A1, “COMPOSITIONS AND METHODS FOR DETECTING TRYPANOSOMA CRUZI INFECTION” (University of Georgia Research Foundation, Inc., priority 2022, published 2024)

Assays:
[1] = tested on: mammalian enzymes, receptors and ion channels; assay: Safety pharmacology: affinity for a broad array of mammalian enzymes, receptors and ion channels; type: binding
[2] = High dose 7-day toxicology studies in rats; type: in vivo; settings: for dose proportionality of exposure: high dose 7-day toxicology studies, oral; for NOAEL dose: allometric scaling from rats
[3] = tested on: cytochrome P450 enzymes; assay: Inhibition of representative cytochrome P450 enzymes; type: in vitro ADME; settings: 10 uM
[4] = tested on: T. cruzi (Brazil strain); assay: Mouse cure assays (daily oral treatment, cyclophosphamide immunosuppression, hemoculture, skeletal muscle qPCR); type: in vivo, Trypanosoma cruzi
Method: Cure assays: Male or female C57BL/6 mice were intraperitoneally infected with 10^4 trypomastigotes of the Brazil strain. Mouse infection was confirmed at 25-30 dpi by detection of CD8^+ T cells specific against the T. cruzi TSKb20 peptide in blood (Martin, et al., PLoS pathogens 2, e77 (2006)). Compounds resuspended in 1% carboxymethyl cellulose and 0.1% Tween 80, were administered daily by gavage at the specified concentrations. In order to optimally detect persistent infection, immune responses in the mice were suppressed by intraperitoneal injection of four doses of cyclophosphamide every 2-3 days (200 mg/kg/day), beginning one week after the end of therapeutic treatment. At the end of the immunosuppression regimen, peripheral blood was checked under light microscope for parasites and cultured in LDNT media (Bustamante, et al., The Journal of infectious diseases 209, 150-162 (2014)). […] In vivo killing time assays: C57BL/6 mice were infected with 2.5×10^5 Luciferase-expressing T. cruzi (Brazil strain) in the foot pads, and two days later one oral dose of AN14353 (25 mg/kg) was administered. The bioluminescent signal in the feet after i.p. injection of D-luciferin (PerkinElmer; 250 mg/kg) was measured in a Lumina II IVIS imager (PerkinElmer). Low dose short treatment: Hairless mice (SKH-1) were infected intraperitoneally with 5×10^4 Luciferase expressing T. cruzi (Colombiana strain) and orally treated from 12 to 22 dpi with 1, 2.5 or 5 mg/kg of AN16109 or AN15368. Bioluminiscence signal of the whole body was measure after D-luciferin injection in a Lumina II IVIS in vivo imager equipped with the Living Imaging 4.0 software (PerkinElmer).

[5] = Standard Ames study; type: cell-based
[6] = tested on: T. cruzi serine carboxypeptidase (CBP); assay: Sensitivity of serine carboxypeptidase (CBP) knockout T. cruzi amastigotes; type: cell-based, Trypanosoma cruzi
Method: The in vitro anti-T. cruzi amastiogote activity assay was performed and optimized based on the protocol described previously (Canavaci, et al., PLoS neglected tropical diseases 4, e740 (2010)). The change in tdTomato fluorescence intensity was determined as a measurement of growth over 72 hours of culture. For assaying drug effects on extracellular amastigotes, trypomastigotes were collected from infected Vero cell cultures and converted in acidic media as previously described (Tomlinson, et al., Parasitology 110 (Pt 5), 547-554 (1995)). Amastigotes (50,000/well) were incubated with 2-fold serial dilutions of compounds for 48 hours. The ATP production was used as an indication of growth in this case, and was measured by ATPlite Luminescence ATP Detection Assay System (PerkinElmer). Both fluorescence and luminescence were read using a BioTek Synergy Hybrid Multi-Mode reader equipped with the software Gene5 v 2.0 (BioTek). […]
The CBPs knockout was produced using ribonucleoprotein (RNP) complexes as previously described (Soares Medeiros, et al., mBio 8 (2017)). Briefly, Brazil tdTomato strain epimastigotes were electroporated with RNP complexes containing SaCas9 and an sgRNA targeting CBP gene TcBrA4_0048170, plus a repair template containing stop codons in all three reading frames and the M13 sequence for use as a PCR anchor. […]

[7] = tested on: T. cruzi extracellular amastigotes; assay: Extracellular amastigote assay (ATPlite ATP production, 48 hours); type: cell-based, Trypanosoma cruzi; settings: in words
Method: The in vitro anti-T. cruzi amastiogote activity assay was performed and optimized based on the protocol described previously (Canavaci, et al., PLoS neglected tropical diseases 4, e740 (2010)). The change in tdTomato fluorescence intensity was determined as a measurement of growth over 72 hours of culture. For assaying drug effects on extracellular amastigotes, trypomastigotes were collected from infected Vero cell cultures and converted in acidic media as previously described (Tomlinson, et al., Parasitology 110 (Pt 5), 547-554 (1995)). Amastigotes (50,000/well) were incubated with 2-fold serial dilutions of compounds for 48 hours. The ATP production was used as an indication of growth in this case, and was measured by ATPlite Luminescence ATP Detection Assay System (PerkinElmer). Both fluorescence and luminescence were read using a BioTek Synergy Hybrid Multi-Mode reader equipped with the software Gene5 v 2.0 (BioTek). The dose-response curve was generated by […] analysis with GraphPad Prism v9.4.0 (GraphPad Software). IC50 was determined as the drug concentration that was required to inhibit 50% of growth compared to that of parasites with no drug exposure.

[8] = tested on: T. cruzi mRNA; assay: RNA-Seq of infected Vero cells: parasite mRNA relative to host cell mRNA; type: cell-based, Trypanosoma cruzi; settings: as early as 6 hrs after addition (FIG. 5C)
Method: Vero cells (10^6) were infected with 10^7 CL strain trypomastigotes of T. cruzi for 2 days before treating with either 5 uM benznidazole or 30 nM AN14353. The drug concentration used for treatment was set at 5 times the IC50. Samples were collected at several time points for RNA extraction as previously described (Minning, et al., BMC genomics 10, 370 (2009)). rRNA-depleted RNA library construction and RNA sequencing using Illumina Nextseq 75PE was carried out by Georgia Genomics and Bioinformatics Core (GGBC, University of Georgia, Georgia). Illumina reads with mean quality lower than 30 (Phred Score based) were removed from analysis, then mapped to CL Brener genome (TritrypDB release-33) and African green monkey genome (Osada, et al., DNA Res 21, 673-683 (2014)) using the HiSAT software package v0.1.6^50 with default parameters. The mapping rate was quantified by HTseq v0.6.1 (Anders, et al., Bioinformatics 31, 166-169 (2015)).

| SMILES | affinity for a broad array of mammalian enzymes, receptors and ion channels [1] | dose proportionality of exposure [2] | NOAEL dose ([2]; humans) [mg/kg] | NOAEL dose ([2]; monkeys) [mg/kg] | NOAEL ([2]; rats) [mg/kg] | drug accumulation between the first and seventh days ([2]; rats) | total plasma exposure (AUC0-24 h) ([2]; rats, 120 mg/kg/day) | effects on hematology and clinical chemistry ([2]; rats, 120 mg/kg/day or lower) | effects on hematology and clinical chemistry ([2]; rats, 150 mg/kg) | inhibition of representative cytochrome P450 enzymes [3] | cure of T. cruzi infection in mice ([4]; in words (FIGS. 3A-3E)) | minimal efficacious dose ([4]; mice (FIG. 3E)) [mg/kg] | genotoxicity, Ames [5] | increased resistance after disruption of CBPs ([6]; intracellular amastigotes, TcCBP KO vs WT (FIG. 5E)) [×] | sensitivity of extracellular amastigotes [7] | resolution of infections in immunodeficient mice ([4]; IFN-gamma deficient mice, 25 mg/kg, 40 days (FIG. 1E)) | resolution of established T. cruzi infections ([4]; wild-type mice, 25 mg/kg, 40 day treatment (FIG. 1D)) | parasite mRNA in T. cruzi-infected host cells [8] | decrease of in vitro sensitivity of T. cruzi amastigotes after disruption of serine carboxypeptidases ([6]; CBP KO vs wild type (FIG. 2C)) |
| --- | --- | --- | --- | --- | --- | --- | --- | --- | --- | --- | --- | --- | --- | --- | --- | --- | --- | --- | --- |
| Cc1c(C(=O)N[C@H](C(=O)OCC2CCOCC2)C(C)C)ccc2c1B(O)OC2 [AN15368] | little to no affinity | good dose proportional exposure | 19.4 | 60.5 | 120 | no evidence of drug accumulation | approximately 30,000 ng*hr/mL | none | modest effects | did not demonstrate significant inhibition | cures T. cruzi infection in mice | 2.5 | non-genotoxic | 1000 | – | – | – | – | – |
| Cc1c(C(=O)N[C@H](C(=O)OCc2ccc(F)c(F)c2)C(C)C)ccc2c1B(O)OC2 [AN14353] | little to no affinity | non-dose proportional exposure | – | – | – | – | – | – | – | did not demonstrate significant inhibition | – | – | non-genotoxic | – | high sensitivity | consistently resolve | consistently resolve established T. cruzi infections | marked and continuing reduction in parasite mRNA | up to 100 fold |
